Tested on: 1-3 days old chicken memory
Assay: one-trial passive avoidance learning task in chicks (weak training, test 24 hours after training)
Assay type: in vivo
Conditions: for dosage at which the maximum effect was observed: weak training, chicks
Description: The method of one-trial passive avoidance learning task has been used in order to investigate the compounds action on 1-3 days old chicken memory. This is the basic method using for investigation the mechanisms of memory formation. Cross chickens (males) “Ptichnoe” were used in experiments. The animals were delivered at the day of hatching and were kept in pairs in the cages which measured 20×25×20 cm, with constant access to water and feed, at a temperature 28° C. and a light cycle of 12:12 hours. The minimal adaptation time was two hours.
The compounds were dissolved in sterile saline. Intraperitoneal injections of 0.1 ml were used for systemic administration. Bilateral intracranial injections were administrated to the lateral ventricles with […] microsyringe («Hamilton») using plastic headholder. The volume of injections was […] for hemisphere. To control the localizations of injections the monitoring of the surface of skull and brain were carried out after the experiment and decapitation. Control groups received saline of the same volume.
The experiments were conducted according the following scheme: 20 minutes before training the animals were pretrained by being offered two neutral (wet with water) […] fixed to a rod. For further training chicks that pecked each bead within first 10 sec were used. Chicks were offered an aversive bead wet with pungent solution (10% solution of methylanthranilate in ethanol). […] Testing was conducted 24 hours after training by offering within 10 seconds a similar but dry aversive bead, and then—a neutral bead. The avoidance of aversive bead was estimated as a long-term memory.

[1] = administrated either immediately before training, or 4 hours after completion of the training

O=C(NCCc1ccncc1)C(NCCc1ccncc1)c1ccc2c(c1)OCO2 (stereo not drawn) [ACB-0005, 2-(1,3-benzodioxole-5-yl)-N-(2-pyridine-4-ylethyl)-2-[(2-pyridine-4-ylethyl)-amino]acetamid]
dosage at which the maximum effect was observed (10 min training (route not given)): 0.1 mg/kg
effect on memory [1]: may enhance memory
dosage at which the maximum effect was observed, per animal (equivalent of 0.1 mg/kg, 10 min training): 4 µg per animal
dosage at which the maximum effect was observed (intracranial injection 10-30 min before training): 5 mg
effect on memory (oral administration 30 min before weak treatment, dosage 0.1 to 1.0 mg/kg): stimulating effect on memory

COC(=O)c1ccc(C(NCCc2ccncc2)C(=O)NCCc2ccncc2)cc1 (stereo not drawn) [ACB-0002, Methyl 4-{2-oxo-1,2-bis[(2-pyridine-4-ylethyl)amino]ethyl}benzoate]
effect on memory [1]: may enhance memory
